According to BigSolDB 2.1:

COc1ccc2c(c1)c(CC(=O)O)c(C)n2C(=O)c1ccc(Cl)cc1
solubility (mole fraction)
Conditions	293.15 K	298.15 K	303.15 K	308.15 K	313.15 K
in 1,4-dioxane	0.0249	0.029	0.0343	0.0416	0.0477
in water	7.81e-07	9.32e-07	1.1e-06	1.27e-06	1.52e-06
